Assay results as given in patent US20200046802A1, “THERAPEUTIC METHOD USING TOLEROGENIC PEPTIDES” (APITOPE INTERNATIONAL NV, priority 2017, published 2020).
Ends that are not written are not given here.

Columns and labels:
[1] = tested on: subjects with Graves' disease; assay: Open label upward titration study of ATX-GD-59, safety; format: in vivo, human; conditions: first 5 patients
Experimental: (§1) Safety and proof of principle study of ATX-GD-59 in male and female subjects with Graves' disease not currently treated with anti-thyroid therapy: An Open label study, with an upward titration over five dose levels administered by Intradermal injection.
(§2) There was an upward titration over five dose levels (injection(s) of 25, 50, 100, 400 and 800 μg) of ATX-GD-59 followed by injection(s) of 800 μg injected on five further occasions. All doses were based on the total peptide.
(§3) All doses were administered by intradermal injection at intervals of 14+/−3 days.
Subjects will be observed in the clinic for at least two hours after administration of the study drug and vital signs will be recorded at 15 minute intervals for the first hour and 30 minute intervals for the second hour. […]
Safety endpoints, which will be evaluated on an ongoing basis up to Week 22, are: • Injection site reactions as reported by the subjects in the diary card. • Occurrence of treatment related adverse events (Adverse Events), Serious Adverse Events, and laboratory abnormalities compared to baseline. • Results from the physical examination, and vital signs (reported on an ongoing basis and compared to baseline/screening). • Premature termination and reasons for premature termination from treatment and/or the study.

[2] = tested on: subjects with Graves' disease; assay: Open label upward titration study of ATX-GD-59, TSHR antibody and free T3 levels; format: in vivo, human
Experimental: as §1, §2, §3
Criteria for Evaluation of the Secondary Objectives: • TSHR antibody levels. • Ratio of stimulatory vs inhibitory TSHR antibodies. • Free T3, free T4 and TSH serum levels.

ATX-GD-59: comprises the RNB-5D-K1 and RNB-9B peptides of SEQ ID NOs: 5 and 6; lyophilised equimolar mixture of two peptides (chain 1 KKKKYVSIDVTLQQLESHKKK; chain 2 GLKMFPDLTKVYSTD; not fully specified)
safety data analysed by DMC [1]: No safety issues were identified | T3, % change from SD1 to W18 ([2]; Subject 3101): 13.60% | TRAb, % change from SD1 to W18 ([2]; Subject 3101): 3.58% | TSI, % change from SD1 to W18 ([2]; Subject 3101): −30.32% | T3, % change from SD1 to W18 ([2]; Subject 3301): 21.4% | TRAb, % change from SD1 to W18 ([2]; Subject 3301): 16.60% | TSI, % change from SD1 to W18 ([2]; Subject 3301): −4.48% | T3, % change from SD1 to W18 ([2]; Subject 3402): −17.72% | TRAb, % change from SD1 to W18 ([2]; Subject 3402): −61.13% | TSI, % change from SD1 to W18 ([2]; Subject 3402): −57.89% | T3, % change from SD1 to W18 ([2]; Subject 3501): −22.39% | TRAb, % change from SD1 to W18 ([2]; Subject 3501): −30.33% | TSI, % change from SD1 to W18 ([2]; Subject 3501): −32.45% | T3, % change from SD1 to W18 ([2]; Subject 3503): −45.33% | TRAb, % change from SD1 to W18 ([2]; Subject 3503): −64.51% | TSI, % change from SD1 to W18 ([2]; Subject 3503): −61.71% | stimulating TRAB levels (TSI) ([2]; first 5 subjects): All subjects had decrease | subjects with decreases in T3 and TRAB ([2]; first 5 subjects): Three of 5
